Results as given in patent publication US4175125A, “Method for treating methicillin resistant staphylococcus aureus” (Eli Lilly and Company, priority 1978, dated 1979).
In brackets after ≈: the same amount, converted by molar mass.

Assays:
[1] = tested on: Staphylococcus aureus cultures; assay: Agar dilution susceptibility test, phenylthioacetyl cephalosporins vs methicillin resistant S. aureus (Example 9); type: cell-based; details: for MIC: Staphylococcus aureus, read-out: MIC; for effectiveness in in vitro tests vs methicillin, cephalothin and cephaloridine: various cultures of methicillin-resistant Staphylococcus aureus
Source text: This example compares the antibiotic activities of three known compounds, methicillin, cephalothin, and cephaloridine, with three compounds from the above examples, in terms of minimum inhibitory concentration (MIC) values in microgram/milliliter units against various isolates of Staphylococcus aureus cultures. The culture numbers and the procedures used to obtain the reported data are disclosed by W. E. Wick and D. A. Preston in their article "Heterogeneous Methicillin-Resistant Staphylococcus Aureus" which appeared in Progress in Antimicrobial And Anticancer Chemotherapy, Proceedings of the 6th International Congress of Chemotherapy, Volume, 1, U. of Tokyo Press, Tokyo, (1970). In these agardilution susceptibility tests, the inocula were diluted to 10^3 bacteria per spot. Cultures 3055 (benzylpenicillin sensitive) and H232 (benzylpenicillin-resistant) are controls. The remaining cultures are methicillin-resistant, and, except for 3136, are clinical isolates. Culture 3136 is a 4th transfer laboratory selected mutant.

[2] = tested on: Staphylococcus aureus cultures; assay: Broth dilution MIC in trypticase soy broth, low and high NaCl (Example 10); type: cell-based; details: Staphylococcus aureus, TSB, read-out: MIC
Method: This example compares the antibiotic activities of methicillin, cephalothin and cephaloridine with the compounds of Examples 1, 2 and 3, in broth dilution tests. The MIC values, in μg/ml., are against the same Staphylococcus aureus cultures described in Example 9, except that in this example the cultures were grown in trypticase soy broth (TSB). Growing the cultures in two broth cultures, one having a low (0.5 percent) sodium chloride content and one having a high (5.0 percent) sodium chloride content is said to assist in identifying the methicillin-resistant cultures from those which are not methicillin-resistant. […] See Chabbert, Y. A., 1967 Postgrad. Med. J., 43 (suppl); 40-46. One expects that similar changes in MIC values for this type of culture to other β-lactam antibiotics, e.g., various penicillins and cephalosporins, to have similar implications. […] That is, methicillin-resistant S.aureus cultures are susceptible to the cephalosporin antibiotics used in this invention.

[3] = culture 3055 (control, benzylpenicillin sensitive), table part marked b
[4] = culture 3055 (control, benzylpenicillin sensitive), table part marked c
[5] = culture 3130, table part marked b
[6] = culture 3130, table part marked c
[7] = culture 3131, table part marked b
[8] = culture 3131, table part marked c
[9] = culture 3132, table part marked b
[10] = culture 3132, table part marked c
[11] = culture 3133, table part marked b
[12] = culture 3133, table part marked c
[13] = culture 3134, table part marked b
[14] = culture 3134, table part marked c
[15] = culture 3135, table part marked b
[16] = culture 3135, table part marked c
[17] = culture 3136, table part marked b
[18] = culture 3136, table part marked c
[19] = culture 3137, table part marked b
[20] = culture 3137, table part marked c
[21] = culture 3138, table part marked b
[22] = culture 3138, table part marked c
[23] = culture 3139, table part marked b
[24] = culture 3139, table part marked c
[25] = culture (Seattle) 966, table part marked b
[26] = culture (Seattle) 966, table part marked c
[27] = culture H232 (control, benzylpenicillin-resistant), table part marked b
[28] = culture H232 (control, benzylpenicillin-resistant), table part marked c
[29] = culture Kavarmark 1138501, table part marked b
[30] = culture Kavarmark 1138501, table part marked c
[31] = culture S61, table part marked b
[32] = culture S61, table part marked c
[33] = culture 3055 (control), table part marked b
[34] = culture 3055 (control), table part marked c
[35] = culture 3132 (first column so headed), table part marked b
[36] = culture 3132 (first column so headed), table part marked c
[37] = culture 3132 (second column so headed), table part marked b
[38] = culture 3132 (second column so headed), table part marked c
[39] = culture H232 (control), table part marked b
[40] = culture H232 (control), table part marked c
[41] = culture Kavarnick 1138501, table part marked b
[42] = culture Kavarnick 1138501, table part marked c

CC(=O)OCC1=C(C(=O)O)N2C(=O)C(NC(=O)CSc3ccc(Cl)c(Cl)c3)C2SC1 (stereo not drawn) [Example 1, 7-(3,4-dichlorophenylthioacetamido)cephalosporanic acid]
MIC [1, 3]: < 0.06 µg/mL | MIC [1, 4]: < 0.06 µg/mL | MIC [1, 5]: 0.5 µg/mL (≈ 1.02 µM) | MIC [1, 6]: 1 µg/mL (≈ 2.04 µM) | MIC [1, 7]: 1 µg/mL (≈ 2.04 µM) | MIC [1, 8]: 1 µg/mL (≈ 2.04 µM) | MIC [1, 9]: 0.5 µg/mL (≈ 1.02 µM) | MIC [1, 10]: 0.25 µg/mL (≈ 0.509 µM) | MIC [1, 11]: 0.5 µg/mL (≈ 1.02 µM) | MIC [1, 12]: 1 µg/mL (≈ 2.04 µM) | MIC [1, 13]: 1 µg/mL (≈ 2.04 µM) | MIC [1, 14]: 0.5 µg/mL (≈ 1.02 µM) | MIC [1, 15]: 0.5 µg/mL (≈ 1.02 µM) | MIC [1, 16]: 0.25 µg/mL (≈ 0.509 µM) | MIC [1, 17]: 0.5 µg/mL (≈ 1.02 µM) | MIC [1, 18]: 0.5 µg/mL (≈ 1.02 µM) | MIC [1, 19]: 2 µg/mL (≈ 4.07 µM) | MIC [1, 20]: 2 µg/mL (≈ 4.07 µM) | MIC [1, 21]: 1 µg/mL (≈ 2.04 µM) | MIC [1, 22]: 0.5 µg/mL (≈ 1.02 µM) | MIC [1, 23]: 1 µg/mL (≈ 2.04 µM) | MIC [1, 24]: 0.25 µg/mL (≈ 0.509 µM) | MIC [1, 25]: 0.5 µg/mL (≈ 1.02 µM) | MIC [1, 26]: 0.25 µg/mL (≈ 0.509 µM) | MIC [1, 27]: < 0.06 µg/mL | MIC [1, 28]: < 0.06 µg/mL | MIC [1, 29]: 0.5 µg/mL (≈ 1.02 µM) | MIC [1, 30]: 0.5 µg/mL (≈ 1.02 µM) | MIC [1, 31]: 0.5 µg/mL (≈ 1.02 µM) | MIC [1, 32]: 1 µg/mL (≈ 2.04 µM) | effectiveness in in vitro tests vs methicillin, cephalothin and cephaloridine [1]: substantially more effective than methicillin, cephalothin, and cephaloridine | MIC [2, 33]: 0.06 µg/mL (≈ 0.122 µM) | MIC [2, 34]: 0.06 µg/mL (≈ 0.122 µM) | MIC [2, 5]: 0.5 µg/mL (≈ 1.02 µM) | MIC [2, 6]: 4 µg/mL (≈ 8.14 µM) | MIC [2, 7]: 1 µg/mL (≈ 2.04 µM) | MIC [2, 8]: 2 µg/mL (≈ 4.07 µM) | MIC [2, 35]: < 0.5 µg/mL | MIC [2, 36]: 2 µg/mL (≈ 4.07 µM) | MIC [2, 37]: < 0.5 µg/mL | MIC [2, 38]: 2 µg/mL (≈ 4.07 µM) | MIC [2, 13]: 1 µg/mL (≈ 2.04 µM) | MIC [2, 14]: 4 µg/mL (≈ 8.14 µM) | MIC [2, 15]: < 0.5 µg/mL | MIC [2, 16]: 2 µg/mL (≈ 4.07 µM) | MIC [2, 17]: 0.5 µg/mL (≈ 1.02 µM) | MIC [2, 18]: 2 µg/mL (≈ 4.07 µM) | MIC [2, 19]: 2 µg/mL (≈ 4.07 µM) | MIC [2, 20]: 4 µg/mL (≈ 8.14 µM) | MIC [2, 21]: 1 µg/mL (≈ 2.04 µM) | MIC [2, 22]: 1 µg/mL (≈ 2.04 µM) | MIC [2, 23]: 1 µg/mL (≈ 2.04 µM) | MIC [2, 24]: 1 µg/mL (≈ 2.04 µM) | MIC [2, 25]: 0.5 µg/mL (≈ 1.02 µM) | MIC [2, 26]: 2 µg/mL (≈ 4.07 µM) | MIC [2, 39]: 0.12 µg/mL (≈ 0.244 µM) | MIC [2, 40]: 0.25 µg/mL (≈ 0.509 µM) | MIC [2, 41]: 0.5 µg/mL (≈ 1.02 µM) | MIC [2, 42]: 2 µg/mL (≈ 4.07 µM) | MIC [2, 31]: 2 µg/mL (≈ 4.07 µM) | MIC [2, 32]: 2 µg/mL (≈ 4.07 µM) | MIC ([2]; culture S, table part marked b): 2 µg/mL (≈ 4.07 µM) | MIC ([2]; culture S, table part marked c): 2 µg/mL (≈ 4.07 µM)

CC(=O)OCC1=C(C(=O)O)N2C(=O)C(NC(=O)CSc3cc(Cl)ccc3Cl)C2SC1 (stereo not drawn) [Example 2, 7-(2,5-Dichlorophenylthioacetamido)-cephalosporanic acid]
MIC [1, 3]: < 0.06 µg/mL | MIC [1, 4]: < 0.06 µg/mL | MIC [1, 5]: 0.5 µg/mL (≈ 1.02 µM) | MIC [1, 6]: 2 µg/mL (≈ 4.07 µM) | MIC [1, 7]: 0.5 µg/mL (≈ 1.02 µM) | MIC [1, 8]: 1 µg/mL (≈ 2.04 µM) | MIC [1, 9]: 0.5 µg/mL (≈ 1.02 µM) | MIC [1, 10]: 0.5 µg/mL (≈ 1.02 µM) | MIC [1, 11]: 1 µg/mL (≈ 2.04 µM) | MIC [1, 12]: 2 µg/mL (≈ 4.07 µM) | MIC [1, 13]: 1 µg/mL (≈ 2.04 µM) | MIC [1, 14]: 2 µg/mL (≈ 4.07 µM) | MIC [1, 15]: 0.5 µg/mL (≈ 1.02 µM) | MIC [1, 16]: 1 µg/mL (≈ 2.04 µM) | MIC [1, 17]: 0.5 µg/mL (≈ 1.02 µM) | MIC [1, 18]: 1 µg/mL (≈ 2.04 µM) | MIC [1, 19]: 2 µg/mL (≈ 4.07 µM) | MIC [1, 20]: 4 µg/mL (≈ 8.14 µM) | MIC [1, 21]: 1 µg/mL (≈ 2.04 µM) | MIC [1, 22]: 1 µg/mL (≈ 2.04 µM) | MIC [1, 23]: 1 µg/mL (≈ 2.04 µM) | MIC [1, 24]: 0.5 µg/mL (≈ 1.02 µM) | MIC [1, 25]: 0.5 µg/mL (≈ 1.02 µM) | MIC [1, 26]: 0.25 µg/mL (≈ 0.509 µM) | MIC [1, 27]: < 0.06 µg/mL | MIC [1, 28]: < 0.06 µg/mL | MIC [1, 29]: 0.5 µg/mL (≈ 1.02 µM) | MIC [1, 30]: 1 µg/mL (≈ 2.04 µM) | MIC [1, 31]: 0.5 µg/mL (≈ 1.02 µM) | MIC [1, 32]: 1 µg/mL (≈ 2.04 µM) | effectiveness in in vitro tests vs methicillin, cephalothin and cephaloridine [1]: substantially more effective than methicillin, cephalothin, and cephaloridine | MIC [2, 33]: 0.06 µg/mL (≈ 0.122 µM) | MIC [2, 34]: 0.06 µg/mL (≈ 0.122 µM) | MIC [2, 5]: 1 µg/mL (≈ 2.04 µM) | MIC [2, 6]: 8 µg/mL (≈ 16.3 µM) | MIC [2, 7]: < 0.5 µg/mL | MIC [2, 8]: 2 µg/mL (≈ 4.07 µM) | MIC [2, 35]: < 0.5 µg/mL | MIC [2, 36]: 2 µg/mL (≈ 4.07 µM) | MIC [2, 37]: < 0.5 µg/mL | MIC [2, 38]: 2 µg/mL (≈ 4.07 µM) | MIC [2, 13]: 2 µg/mL (≈ 4.07 µM) | MIC [2, 14]: 4 µg/mL (≈ 8.14 µM) | MIC [2, 15]: < 0.5 µg/mL | MIC [2, 16]: 2 µg/mL (≈ 4.07 µM) | MIC [2, 17]: 0.25 µg/mL (≈ 0.509 µM) | MIC [2, 18]: 4 µg/mL (≈ 8.14 µM) | MIC [2, 19]: 2 µg/mL (≈ 4.07 µM) | MIC [2, 20]: 4 µg/mL (≈ 8.14 µM) | MIC [2, 21]: 2 µg/mL (≈ 4.07 µM) | MIC [2, 22]: 2 µg/mL (≈ 4.07 µM) | MIC [2, 23]: 0.5 µg/mL (≈ 1.02 µM) | MIC [2, 24]: < 0.5 µg/mL | MIC [2, 25]: 0.5 µg/mL (≈ 1.02 µM) | MIC [2, 26]: 2 µg/mL (≈ 4.07 µM) | MIC [2, 39]: 0.12 µg/mL (≈ 0.244 µM) | MIC [2, 40]: 0.25 µg/mL (≈ 0.509 µM) | MIC [2, 41]: 0.5 µg/mL (≈ 1.02 µM) | MIC [2, 42]: 2 µg/mL (≈ 4.07 µM) | MIC [2, 31]: 0.5 µg/mL (≈ 1.02 µM) | MIC [2, 32]: 2 µg/mL (≈ 4.07 µM) | MIC ([2]; culture S, table part marked b): 0.5 µg/mL (≈ 1.02 µM) | MIC ([2]; culture S, table part marked c): 2 µg/mL (≈ 4.07 µM)
